The molecules below were run against PD-1/PD-L1 PPI (Homo sapiens, UniProt Q9NZQ7) (assay: PDL1/PD1 Binding Assay). Settings: PDL1-6×His 0.3 nM, PD1-Fc-Avi-Biotin 2.5 nM, Acceptor/Donor beads, Envision reader.
In short: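 AlphaScreen competition: compound (1% DMSO) preincubated 30 min RT with PDL1-6×His (0.3 nM), then PD1-Fc-Avi-Biotin (2.5 nM) 30 min; anti-His acceptor and streptavidin donor beads (20 ug/mL each) added, 1 h each, dark up to overnight. Buffer 25 mM Hepes pH 7.4, 150 mM NaCl. IC50 by four-parameter fit.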

PD-1/PD-L1 PPI, sequence (Q9NZQ7 19-238 limits assumed): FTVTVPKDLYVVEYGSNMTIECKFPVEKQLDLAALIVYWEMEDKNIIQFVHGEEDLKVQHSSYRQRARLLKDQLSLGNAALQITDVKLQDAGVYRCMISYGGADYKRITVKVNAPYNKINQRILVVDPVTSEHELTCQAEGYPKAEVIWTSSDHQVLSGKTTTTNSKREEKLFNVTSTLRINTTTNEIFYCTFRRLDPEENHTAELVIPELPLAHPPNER

| SMILES | IC50 [nM] |
| --- | --- |
| COc1nc(-c2cccc(-c3cc(Cl)cc(NC(=O)c4cn(C)c(=O)n(C)c4=O)c3C)c2Cl)cc2c1[C@@H](NC[C@@H]1CCC(=O)N1)CC2 [Compound A-61] | ≤ 10 |
| COc1nc(-c2cccc(-c3cc(F)cc(NC(=O)c4nn(C)c(=O)n(C)c4=O)c3C)c2Cl)cc2c1[C@@H](NC[C@@H]1CCC(=O)N1)CC2 [Compound A-62] | ≤ 10 |
| COc1nc(-c2cccc(-c3cc(F)cc(NC(=O)c4ccnn(C)c4=O)c3C)c2Cl)cc2c1[C@@H](NC[C@@H]1CCC(=O)N1)CC2 [Compound A-63] | ≤ 10 |
| COc1nc(-c2cc(F)cc(-c3cc(F)cc(NC(=O)c4cn(C)c(=O)n(C)c4=O)c3C)c2Cl)cc2c1[C@@H](NC[C@@H]1CCC(=O)N1)CC2 [Compound A-64] | ≤ 10 |
| COc1nc(-c2cccc(-c3cc(F)cc(NC(=O)c4cn(C)c(=O)n(C)c4=O)c3Cl)c2Cl)cc2c1[C@@H](NC[C@@H]1CCC(=O)N1)CC2 [Compound A-65] | ≤ 10 |
| COc1nc(-c2cc(F)cc(-c3cc(F)cc(NC(=O)c4cn(C)c(=O)n(C)c4=O)c3Cl)c2Cl)cc2c1[C@@H](NC[C@@H]1CCC(=O)N1)CC2 [Compound A-66] | ≤ 10 |
| COc1nc(-c2ccc(F)c(-c3cccc(NC(=O)c4cn(C)c(=O)n(C)c4=O)c3C)c2F)cc2c1[C@@H](NC[C@@H]1CCC(=O)N1)CC2 [Compound A-67] | ≤ 10 |
| COc1nc(-c2ccc(F)c(-c3cccc(NC(=O)c4cn(C)c(=O)n(C)c4=O)c3C)c2F)cc2c1[C@@H](NC[C@@H]1CCC(=O)N1)CC2 [Compound A-68] | ≤ 10 |
| COc1nc(-c2cc(F)cc(-c3cccc(NC(=O)c4cn(C)c(=O)n(C)c4=O)c3C)c2Cl)cc2c1[C@@H](NC[C@@H]1CCC(=O)N1)CC2 [Compound A-69] | ≤ 10 |
| COc1nc(-c2c(F)ccc(-c3cccc(NC(=O)c4cn(C)c(=O)n(C)c4=O)c3C)c2F)cc2c1[C@@H](NC[C@@H]1CCC(=O)N1)CC2 [Compound A-70] | ≤ 10 |
| COc1nc(-c2cccc(-c3cccc(NC(=O)c4cn(C)c(=O)n(C)c4=O)c3Cl)c2Cl)cc2c1C(N1CCN3C(=O)CC[C@H]3C1)CC2 (stereo partly shown) [Compound A-117] | ≤ 10 |
| COc1nc(-c2cccc(-c3cccc(NC(=O)c4cn(C)c(=O)n(C)c4=O)c3Cl)c2Cl)cc2c1C(N1CCN3C(=O)CC[C@@H]3C1)CC2 (stereo partly shown) [Compound A-118] | ≤ 10 |
| COc1nc(-c2cccc(-c3cccc(NC(=O)c4cn(C)c(=O)n(C)c4=O)c3Cl)c2Cl)cc2c1C(N1CCC3(CN(C(=O)OC(C)(C)C)C3)C1)CC2 (stereo not shown) [Compound A-119] | ≤ 10 |
| COc1nc(-c2cccc(-c3cccc(NC(=O)c4cn(C)c(=O)n(C)c4=O)c3Cl)c2Cl)cc2c1C(N)C(O)C2 (stereo not shown) [Compound A-120] | ≤ 10 |
| COc1nc(-c2cccc(-c3cccc(NC(=O)c4cn(C)c(=O)n(C)c4=O)c3C)c2Cl)cc2c1C(NC[C@@H]1CCC(=O)N1)C(C)C2 (stereo partly shown) [Compound A-121] | ≤ 10 |
| COc1nc(-c2cccc(-c3cccc(NC(=O)c4cn(C)c(=O)n(C)c4=O)c3C)c2Cl)cc2c1C(NC[C@@H]1CCC(=O)N1)CC2C (stereo partly shown) [Compound A-122] | ≤ 10 |
| COc1nc(-c2cccc(-c3cccc(Nc4ncnc5cccnc45)c3Cl)c2Cl)cc2c1[C@@H](NC[C@@H]1CCC(=O)N1)CC2 [Compound B-2] | ≤ 10 |
| COc1nc(-c2cccc(-c3cccc(Nc4nccc5cccnc45)c3Cl)c2Cl)cc2c1[C@@H](NC[C@@H]1CCC(=O)N1)CC2 [Compound B-3] | ≤ 10 |
| COc1nc(-c2cccc(-c3cccc(Nc4nccc5nccnc45)c3Cl)c2Cl)cc2c1[C@@H](NC[C@@H]1CCC(=O)N1)CC2 [Compound B-4] | ≤ 10 |
| COc1nc(-c2cccc(-c3cccc(NC(=O)c4cn(C)c(=O)n(C)c4=O)c3Cl)c2Cl)cc2c1C(N1CC(OC)C1)CC2 [Compound D-1] | ≤ 10 |
| COc1nc(-c2cccc(-c3cccc(NC(=O)c4cn(C)c(=O)n(C)c4=O)c3Cl)c2Cl)cc2c1C(N1CC(O)C1)CC2 [Compound D-2] | ≤ 10 |
| COc1nc(-c2cccc(-c3cccc(NC(=O)c4cn(C)c(=O)n(C)c4=O)c3Cl)c2Cl)cc2c1C(N1CC3(CCNC3=O)C1)CC2 [Compound D-3] | ≤ 10 |
| COc1nc(-c2cccc(-c3cccc(NC(=O)c4cn(C)c(=O)n(C)c4=O)c3Cl)c2Cl)cc2c1C(N[C@@H]1COC[C@@H]1O)CC2 (stereo partly drawn) [Compound D-4] | ≤ 10 |

Each molecule was assayed on PD-1/PD-L1 interaction (assay: PD-1/PD-L1 NFAT Reporter Assay (co-culture of Jurkat T cells overexpressing PD-1 and PD-L1 expressing CHO cells)). Settings: Homo sapiens, Jurkat, 6 h, co-culture 6 hrs at 37° C., NFAT-mediated luciferase activity.
Format: cell-based
In short: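 Compounds added to CHO cells expressing surface anti-CD3 and PD-L1, then Jurkat cells with PD-1 and NFAT-driven luciferase seeded on top; co-culture 6 hrs at 37° C. Luminescence read after ONE-Glo addition, EC50 from dose-response fit.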

| SMILES | EC50 [nM] |
| --- | --- |
| COc1nc(-c2cccc(-c3cc(Cl)cc(NC(=O)c4cn(C)c(=O)n(C)c4=O)c3C)c2Cl)cc2c1[C@@H](NC[C@@H]1CCC(=O)N1)CC2 [Compound A-61] | 10 to 100 |
| COc1nc(-c2cccc(-c3cc(F)cc(NC(=O)c4nn(C)c(=O)n(C)c4=O)c3C)c2Cl)cc2c1[C@@H](NC[C@@H]1CCC(=O)N1)CC2 [Compound A-62] | ≤ 10 |
| COc1nc(-c2cccc(-c3cc(F)cc(NC(=O)c4ccnn(C)c4=O)c3C)c2Cl)cc2c1[C@@H](NC[C@@H]1CCC(=O)N1)CC2 [Compound A-63] | ≤ 10 |
| COc1nc(-c2cc(F)cc(-c3cc(F)cc(NC(=O)c4cn(C)c(=O)n(C)c4=O)c3C)c2Cl)cc2c1[C@@H](NC[C@@H]1CCC(=O)N1)CC2 [Compound A-64] | ≤ 10 |
| COc1nc(-c2cccc(-c3cc(F)cc(NC(=O)c4cn(C)c(=O)n(C)c4=O)c3Cl)c2Cl)cc2c1[C@@H](NC[C@@H]1CCC(=O)N1)CC2 [Compound A-65] | ≤ 10 |
| COc1nc(-c2cc(F)cc(-c3cc(F)cc(NC(=O)c4cn(C)c(=O)n(C)c4=O)c3Cl)c2Cl)cc2c1[C@@H](NC[C@@H]1CCC(=O)N1)CC2 [Compound A-66] | 10 to 100 |
| COc1nc(-c2ccc(F)c(-c3cccc(NC(=O)c4cn(C)c(=O)n(C)c4=O)c3C)c2F)cc2c1[C@@H](NC[C@@H]1CCC(=O)N1)CC2 [Compound A-67] | ≤ 10 |
| COc1nc(-c2cc(F)cc(-c3cccc(NC(=O)c4cn(C)c(=O)n(C)c4=O)c3C)c2Cl)cc2c1[C@@H](NC[C@@H]1CCC(=O)N1)CC2 [Compound A-69] | ≤ 10 |
| COc1nc(-c2c(F)ccc(-c3cccc(NC(=O)c4cn(C)c(=O)n(C)c4=O)c3C)c2F)cc2c1[C@@H](NC[C@@H]1CCC(=O)N1)CC2 [Compound A-70] | 10 to 100 |
| COc1nc(-c2cccc(-c3cccc(NC(=O)c4cn(C)c(=O)n(C)c4=O)c3Cl)c2Cl)cc2c1C(N1CCN3C(=O)CC[C@H]3C1)CC2 (stereo partly shown) [Compound A-117] | 10 to 100 |
| COc1nc(-c2cccc(-c3cccc(NC(=O)c4cn(C)c(=O)n(C)c4=O)c3Cl)c2Cl)cc2c1C(N1CCN3C(=O)CC[C@@H]3C1)CC2 (stereo partly shown) [Compound A-118] | 10 to 100 |
| COc1nc(-c2cccc(-c3cccc(NC(=O)c4cn(C)c(=O)n(C)c4=O)c3Cl)c2Cl)cc2c1C(N1CCC3(CN(C(=O)OC(C)(C)C)C3)C1)CC2 (stereo not shown) [Compound A-119] | 100 to 1000 |
| COc1nc(-c2cccc(-c3cccc(NC(=O)c4cn(C)c(=O)n(C)c4=O)c3Cl)c2Cl)cc2c1C(N)C(O)C2 (stereo not shown) [Compound A-120] | 10 to 100 |
| COc1nc(-c2cccc(-c3cccc(NC(=O)c4cn(C)c(=O)n(C)c4=O)c3C)c2Cl)cc2c1C(NC[C@@H]1CCC(=O)N1)C(C)C2 (stereo partly shown) [Compound A-121] | 10 to 100 |
| COc1nc(-c2cccc(-c3cccc(NC(=O)c4cn(C)c(=O)n(C)c4=O)c3C)c2Cl)cc2c1C(NC[C@@H]1CCC(=O)N1)CC2C (stereo partly shown) [Compound A-122] | 100 to 1000 |
| COc1nc(-c2cccc(-c3cccc(Nc4ncnc5cccnc45)c3Cl)c2Cl)cc2c1[C@@H](NC[C@@H]1CCC(=O)N1)CC2 [Compound B-2] | 10 to 100 |
| COc1nc(-c2cccc(-c3cccc(Nc4nccc5cccnc45)c3Cl)c2Cl)cc2c1[C@@H](NC[C@@H]1CCC(=O)N1)CC2 [Compound B-3] | 100 to 1000 |
| COc1nc(-c2cccc(-c3cccc(Nc4nccc5nccnc45)c3Cl)c2Cl)cc2c1[C@@H](NC[C@@H]1CCC(=O)N1)CC2 [Compound B-4] | 10 to 100 |
| COc1nc(-c2cccc(-c3cccc(NC(=O)c4cn(C)c(=O)n(C)c4=O)c3Cl)c2Cl)cc2c1C(N1CC(OC)C1)CC2 [Compound D-1] | ≤ 10 |
| COc1nc(-c2cccc(-c3cccc(NC(=O)c4cn(C)c(=O)n(C)c4=O)c3Cl)c2Cl)cc2c1C(N1CC(O)C1)CC2 [Compound D-2] | ≤ 10 |
| COc1nc(-c2cccc(-c3cccc(NC(=O)c4cn(C)c(=O)n(C)c4=O)c3Cl)c2Cl)cc2c1C(N1CC3(CCNC3=O)C1)CC2 [Compound D-3] | ≤ 10 |
| COc1nc(-c2cccc(-c3cccc(NC(=O)c4cn(C)c(=O)n(C)c4=O)c3Cl)c2Cl)cc2c1C(N[C@@H]1COC[C@@H]1O)CC2 (stereo partly drawn) [Compound D-4] | 10 to 100 |

Same assay, conditions: co-culture 6 hrs at 37° C., NFAT-mediated luciferase activity

| SMILES | EC50 [nM] |
| --- | --- |
| COc1nc(-c2ccc(F)c(-c3cccc(NC(=O)c4cn(C)c(=O)n(C)c4=O)c3C)c2F)cc2c1[C@@H](NC[C@@H]1CCC(=O)N1)CC2 [Compound A-68] | 10 to 100 |
